# In ChEMBL document CHEMBL1201862, “PubChem BioAssay data set” (2004):
#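 Protocol summary: plate cells (96-well), add compound at 5 concentrations, incubate 48 h, interpolate endpoints linearly. GI50 marks 50% less growth.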 The source made the active and inactive calls. No stated cut-off is given here; in the data, active = GI50 up to about 1.1 µM and inactive = higher.
# Tests used:
# Experiment in all cases: NCI tumour cell line growth inhibition, 48 h
# [1] = tested on: 786-0
# [2] = tested on: A498
# [3] = tested on: A549
# [4] = tested on: ACHN
# [5] = tested on: BT-549
# [6] = tested on: CAKI-1
# [7] = tested on: CCRF-CEM
# [8] = tested on: COLO 205
# [9] = tested on: DU-145
# [10] = tested on: EKVX
# [11] = tested on: HCC 2998
# [12] = tested on: HCT-116
# [13] = tested on: HCT-15
# [14] = tested on: HL-60
# [15] = tested on: HOP-62
# [16] = tested on: HOP-92
# [17] = tested on: HT-29
# [18] = tested on: Hs-578T
# [19] = tested on: IGROV-1
# [20] = tested on: K562
# [21] = tested on: KM12
# [22] = tested on: LOX IMVI
# [23] = tested on: M14
# [24] = tested on: MCF7
# [25] = tested on: MDA-MB-231
# [26] = tested on: MDA-MB-435
# [27] = tested on: MDA-N
# [28] = tested on: MOLT-4
# [29] = tested on: Malme-3M
# [30] = tested on: NCI-H226
# [31] = tested on: NCI-H23
# [32] = tested on: NCI-H460
# [33] = tested on: NCI-H522
# [34] = tested on: NCI/ADR-RES
# [35] = tested on: OVCAR-3
# [36] = tested on: OVCAR-4
# [37] = tested on: OVCAR-5
# [38] = tested on: OVCAR-8
# [39] = tested on: PC-3
# [40] = tested on: RPMI-8226
# [41] = tested on: RXF 393
# [42] = tested on: SF-268
# [43] = tested on: SF-295
# [44] = tested on: SF-539
# [45] = tested on: SK-MEL-28
# [46] = tested on: SK-MEL-2
# [47] = tested on: SK-MEL-5
# [48] = tested on: SN12C
# [49] = tested on: SNB-19
# [50] = tested on: SNB-75
# [51] = tested on: SR
# [52] = tested on: SW-620
# [53] = tested on: T47D
# [54] = tested on: TK-10
# [55] = tested on: U-251
# [56] = tested on: UACC-257
# [57] = tested on: UACC-62
# [58] = tested on: UO-31
# [59] = tested on: SK-OV-3
smiles,measurement,setting,value
CCOC(=O)C1C(=O)CC(C)(O)C(C(=O)OCC)C1c1ccc(OC)cc1 (stereo unspecified),GI50,[1],> 100 µM (inactive)
same,GI50,[2],> 100 µM (inactive)
same,GI50,[3],> 100 µM (inactive)
same,GI50,[4],> 100 µM (inactive)
same,GI50,[5],> 100 µM (inactive)
same,GI50,[6],> 100 µM (inactive)
same,GI50,[7],> 100 µM (inactive)
same,GI50,[8],> 100 µM (inactive)
same,GI50,[9],> 100 µM (inactive)
same,GI50,[10],> 100 µM (inactive)
same,GI50,[11],> 100 µM (inactive)
same,GI50,[12],> 100 µM (inactive)
same,GI50,[13],> 100 µM
same,GI50,[14],> 100 µM (inactive)
same,GI50,[15],> 100 µM (inactive)
same,GI50,[16],> 100 µM (inactive)
same,GI50,[17],> 100 µM (inactive)
same,GI50,[18],> 100 µM (inactive)
same,GI50,[19],> 100 µM (inactive)
same,GI50,[20],> 100 µM (inactive)
same,GI50,[21],> 100 µM (inactive)
same,GI50,[22],> 100 µM (inactive)
same,GI50,[23],> 100 µM (inactive)
same,GI50,[24],> 100 µM (inactive)
same,GI50,[25],> 100 µM (inactive)
same,GI50,[26],> 100 µM (inactive)
same,GI50,[27],> 100 µM (inactive)
same,GI50,[28],> 100 µM (inactive)
same,GI50,[29],> 100 µM (inactive)
same,GI50,[30],1.6 µM (inactive)
same,GI50,[31],> 100 µM (inactive)
same,GI50,[32],> 100 µM (inactive)
same,GI50,[33],> 100 µM (inactive)
same,GI50,[34],> 100 µM (inactive)
same,GI50,[35],> 100 µM (inactive)
same,GI50,[36],> 100 µM (inactive)
same,GI50,[37],> 100 µM (inactive)
same,GI50,[38],> 100 µM (inactive)
same,GI50,[39],> 100 µM (inactive)
same,GI50,[40],> 100 µM (inactive)
same,GI50,[41],> 100 µM (inactive)
same,GI50,[42],> 100 µM (inactive)
same,GI50,[43],> 100 µM (inactive)
same,GI50,[44],> 100 µM (inactive)
same,GI50,[45],> 100 µM (inactive)
same,GI50,[46],> 100 µM (inactive)
same,GI50,[47],> 100 µM (inactive)
same,GI50,[48],> 100 µM (inactive)
same,GI50,[49],> 100 µM (inactive)
same,GI50,[50],> 100 µM (inactive)
same,GI50,[51],> 100 µM (inactive)
same,GI50,[52],> 100 µM (inactive)
same,GI50,[53],> 100 µM (inactive)
same,GI50,[54],> 100 µM (inactive)
same,GI50,[55],> 100 µM (inactive)
same,GI50,[56],> 100 µM (inactive)
same,GI50,[57],> 100 µM (inactive)
same,GI50,[58],> 100 µM (inactive)
Clc1ccc(/N=C/C=C/Nc2ccc(Cl)cn2)nc1,GI50,[1],5.65 µM (inactive)
same,GI50,[2],20.1 µM (inactive)
same,GI50,[3],14.5 µM (inactive)
same,GI50,[4],12.6 µM (inactive)
same,GI50,[5],17.2 µM (inactive)
same,GI50,[6],9.82 µM (inactive)
same,GI50,[7],3.22 µM (inactive)
same,GI50,[8],12.6 µM (inactive)
same,GI50,[9],17.5 µM (inactive)
same,GI50,[10],0.714 µM (active)
same,GI50,[12],12.2 µM (inactive)
same,GI50,[13],1.76 µM
same,GI50,[14],2.12 µM (inactive)
same,GI50,[15],16.9 µM (inactive)
same,GI50,[16],16.3 µM (inactive)
same,GI50,[17],7.8 µM (inactive)
same,GI50,[18],5.14 µM (inactive)
same,GI50,[19],15 µM (inactive)
same,GI50,[20],7.66 µM (inactive)
same,GI50,[21],8.53 µM (inactive)
same,GI50,[22],7.73 µM (inactive)
same,GI50,[23],16.4 µM (inactive)
same,GI50,[24],16.4 µM (inactive)
same,GI50,[25],5 µM (inactive)
same,GI50,[26],14.5 µM (inactive)
same,GI50,[27],15.1 µM (inactive)
same,GI50,[28],4.74 µM (inactive)
same,GI50,[29],17.3 µM (inactive)
same,GI50,[30],16.1 µM (inactive)
same,GI50,[31],16.9 µM (inactive)
same,GI50,[32],16 µM (inactive)
same,GI50,[33],14 µM (inactive)
same,GI50,[34],15.2 µM (inactive)
same,GI50,[35],13.5 µM (inactive)
same,GI50,[36],7.52 µM (inactive)
same,GI50,[37],16.3 µM (inactive)
same,GI50,[38],10.4 µM (inactive)
same,GI50,[39],14.5 µM (inactive)
same,GI50,[40],10.4 µM (inactive)
same,GI50,[41],18.4 µM (inactive)
same,GI50,[42],16.4 µM (inactive)
same,GI50,[43],16.3 µM (inactive)
same,GI50,[44],17.3 µM (inactive)
same,GI50,[45],18.6 µM (inactive)
same,GI50,[46],15.6 µM (inactive)
same,GI50,[47],13.7 µM (inactive)
same,GI50,[59],21.8 µM (inactive)
same,GI50,[48],14.5 µM (inactive)
same,GI50,[49],16 µM (inactive)
same,GI50,[50],13 µM (inactive)
same,GI50,[51],2.78 µM (inactive)
same,GI50,[52],4.9 µM (inactive)
same,GI50,[53],18.3 µM (inactive)
same,GI50,[54],19.1 µM (inactive)
same,GI50,[55],8.26 µM (inactive)
same,GI50,[56],17.1 µM (inactive)
same,GI50,[57],12.9 µM (inactive)
same,GI50,[58],15.6 µM (inactive)
